According to patent US7071158B2, “Antioxidant enhancement of therapy for hyperproliferative conditions” (Atherogenics, Inc., priority 1997, dated 2006):

How the values were obtained:
Primary colonocytes [1] = assay: DNA fragmentation after PDTC treatment; format: cell-based, human; conditions: 70 μM
Wild Type p53 HCA-7 = assay: DNA fragmentation after PDTC treatment; format: cell-based; conditions: 70 μM
HCT 116 = assay: DNA fragmentation after PDTC treatment; format: cell-based, human; conditions: 70 μM
Mutant p53 HCT 15 = assay: DNA fragmentation after PDTC treatment; format: cell-based, human; conditions: 70 μM
DKO-3 = assay: DNA fragmentation after PDTC treatment; format: cell-based; conditions: 70 μM
[2] = tested on: Primary mammary epithelia; assay: Effect of PDTC on cell proliferation (IC50); format: cell-based; conditions: Homo sapiens, Normal cells, read-out: IC50 required to inhibit cellular proliferation or induce apoptosis
Description: (§1) The effect of PDTC on cellular proliferation or apoptosis was evaluated in a number of normal and cancer cell lines. The IC50 was measured as the concentration of PDTC that inhibited cellular proliferation.

AsPo1 = assay: Effect of PDTC on cell proliferation (IC50); format: cell-based; conditions: Pancreatic carcinoma cells, read-out: IC50 required to inhibit cellular proliferation or induce apoptosis
Description: as §1

Saos-2 = assay: Effect of PDTC on cell proliferation (IC50); format: cell-based; conditions: Homo sapiens, Osteosarcoma, read-out: IC50 required to inhibit cellular proliferation or induce apoptosis
Description: as §1

N-87 = assay: Effect of PDTC on cell proliferation (IC50); format: cell-based; conditions: Gastric carcinoma cells, read-out: IC50 required to inhibit cellular proliferation or induce apoptosis
Description: as §1

[3] = tested on: Non-transformed rat intestinal epithelial cells; assay: Effect of PDTC on cell proliferation (IC50); format: cell-based; conditions: Normal cells, read-out: IC50 required to inhibit cellular proliferation or induce apoptosis
Description: as §1

MCF-7 = assay: Effect of PDTC on cell proliferation (IC50); format: cell-based; conditions: Homo sapiens, MCF7, Breast carcinoma cells, read-out: IC50 required to inhibit cellular proliferation or induce apoptosis
Description: as §1

PANC-1 = assay: Effect of PDTC on cell proliferation (IC50); format: cell-based; conditions: Homo sapiens, Pancreatic carcinoma cells, read-out: IC50 required to inhibit cellular proliferation or induce apoptosis
Description: as §1

MDA MB-468 = assay: Effect of PDTC on cell proliferation (IC50); format: cell-based; conditions: Homo sapiens, Breast carcinoma cells, read-out: IC50 required to inhibit cellular proliferation or induce apoptosis
Description: as §1

MCF-10HRas = assay: Effect of PDTC on cell proliferation (IC50); format: cell-based; conditions: Breast carcinoma cell, Breast carcinoma cells, read-out: IC50 required to inhibit cellular proliferation or induce apoptosis
Description: as §1

Hs746T = assay: Effect of PDTC on cell proliferation (IC50); format: cell-based; conditions: Homo sapiens, Gastric carcinoma cells, read-out: IC50 required to inhibit cellular proliferation or induce apoptosis
Description: as §1

MDA-MB231 = assay: Effect of PDTC on cell proliferation (IC50); format: cell-based; conditions: Homo sapiens, MDA-MB-231, Breast carcinoma cells, read-out: IC50 required to inhibit cellular proliferation or induce apoptosis
Description: as §1

MCF-10WT = assay: Effect of PDTC on cell proliferation (IC50); format: cell-based; conditions: Breast carcinoma cell, Breast carcinoma cells, read-out: IC50 required to inhibit cellular proliferation or induce apoptosis
Description: as §1

BxPc3 = assay: Effect of PDTC on cell proliferation (IC50); format: cell-based; conditions: Homo sapiens, BXPC-3, Pancreatic carcinoma cells, read-out: IC50 required to inhibit cellular proliferation or induce apoptosis
Description: as §1

Primary colonocytes [4] = assay: Effect of PDTC on cell proliferation (IC50); format: cell-based; conditions: Homo sapiens, Normal cells, read-out: IC50 required to inhibit cellular proliferation or induce apoptosis
Description: as §1

Keratinocytes = assay: Effect of PDTC on cell proliferation (IC50); format: cell-based; conditions: Homo sapiens, Keratinocyte, Normal cells, read-out: IC50 required to inhibit cellular proliferation or induce apoptosis
Description: as §1

HCT 15-derived tumors = assay: HCT 15 tumor xenografts in athymic mice; format: in vivo; conditions: HCT 15-derived tumors, after 3 weeks of single agent treatment, before cross-over
Description: HCT 15-derived tumors were generated as described above. Animals were then treated with pyrrolidinedithiocarbamate, in the presence or absence of 5-FU, for 3 weeks. At this point, treatments were discontinued in animals receiving the combined treatment of pyrrolidinedithiocarbamate and 5-FU for 2 months. All other treatment groups received both 5-FU and pyrrolidinedithiocarbamate for the remaining 3 weeks.
Male athymic Balb/c nu/nu mice were obtained from the Harlan Sprague-Dawley Company at 4–6 weeks of age and were quarantined for at least 2 weeks before the study. […] HCT 116 and HCT 15 CRC cell lines were grown in DMEM supplemented with 10% FBS as described above. Cells were harvested through two consecutive trypsinizations, centrifuged at 300 g for 5 minutes, washed twice, and resuspended in sterile phosphate buffered saline. One ×10^6 cells in 0.2 ml were injected subcutaneously between the scapula of 7- to 10-week-old male nude mice.
Tumor volumes were estimated weekly by measuring the maximal length, width, and height. Once tumors reached a mean size of 120 to 150 mm^3, animals received either weekly i.p. injections of pyrrolidinedithiocarbamate (70 μM) or vitamin E (3 mM), 5-FU (40 mg/kg) or saline, or a combination of pyrrolidinedithiocarbamate or vitamin E and 5-FU or 6 weeks. In cross-over experiments, animals received the above treatments for three weeks (with the exception of vitamin E), and then were crossed-over to either the combination treatment of pyrrolidinedithiocarbamate and 5-FU (saline, pyrrolidinedithiocarbamate or 5-FU alone) or discontinued treatment pyrrolidinedithiocarbamate and 5-FU) for the remaining three weeks of the experiment. […] Tumor volumes were recorded weekly until termination of the study.
Tumor tissues were fixed overnight in 4% (v/v) paraformaldehyde and embedded in paraffin according to standard histological procedures. […] The proliferative index (BrDU) and the apoptotic index (TUNEL) were estimated by the percentage of cells scored under a microscope at 200-fold magnification.

[5] = tested on: murine small intestine and the murine colon; conditions: mouse, in vivo
DLD-1 = assay: DNA fragmentation after PDTC treatment; format: cell-based; conditions: 70 μM
HCT 15 cells = assay: Soft-agar colony formation (anchorage-independent growth); conditions: Homo sapiens, HCT-15, 240 h, read-out: approximate IC50 in soft agar
Description: (§2) FIG. 1A is a graph of the concentration of PDTC versus soft-agar forming units×10^6 HCT 15 and HCT 116 cells (as a percent of control). […] Soft-agar colony formation was measured by seeding HCT 116 or HCT 15 cells in soft agar supplemented with either medium alone (control), or increasing concentrations of pyrrolidinedithiocarbamate (25–200 μM) or vitamin E (0.1–10 mM). Colonies were scored at the end of 10 days incubation at 37° C. Values are representative of three experiments carried out in quadruplicate.
(§3) HCT 116 and HCT 15 cells were seeded in soft agar as described above containing increasing concentrations of either 5-FU (5×10^−8 to 5×10^−5 M) or doxorubicin (1×10^−9 to 1×10^−6 M), in the presence or absence of pyrrolidinedithiocarbamate (70 μM) or vitamin E (3 mM). Colonies were scored after 10 days and IC50 values were calculated as the concentration of 5-FU or doxorubicin required to reduce basal colony formation by 50% (±s.e.m.). Values are representative of three experiments carried out in quadruplicate.

HCT 116 cells = assay: as above; conditions: Homo sapiens, HCT-116, 240 h, read-out: approximate IC50 in soft agar
Description: as §2, §3

## S=C(S)N1CCCC1 [PDTC, pyrrolidinedithiocarbamate]
Primary colonocytes [1]; 3 h
  DNA Fragmentation after PDTC Treatment: 101 ± 10 % Control
Primary colonocytes [1]; 6 h
  DNA Fragmentation after PDTC Treatment: 109 ± 9 % Control
Primary colonocytes [1]; 12 h
  DNA Fragmentation after PDTC Treatment: 107 ± 10 % Control
Primary colonocytes [1]; 24 h
  DNA Fragmentation after PDTC Treatment: 130 ± 16 % Control
Wild Type p53 HCA-7; 3 h
  DNA Fragmentation after PDTC Treatment: 111 ± 13 % Control
Wild Type p53 HCA-7; 6 h
  DNA Fragmentation after PDTC Treatment: 126 ± 17 % Control
Wild Type p53 HCA-7; 12 h
  DNA Fragmentation after PDTC Treatment: 154 ± 19 % Control
Wild Type p53 HCA-7; 24 h
  DNA Fragmentation after PDTC Treatment: 302 ± 35 % Control
HCT 116; 3 h
  DNA Fragmentation after PDTC Treatment: 108 ± 11 % Control
HCT 116; 6 h
  DNA Fragmentation after PDTC Treatment: 131 ± 21 % Control
HCT 116; 12 h
  DNA Fragmentation after PDTC Treatment: 198 ± 23 % Control
HCT 116; 24 h
  DNA Fragmentation after PDTC Treatment: 367 ± 49 % Control
Mutant p53 HCT 15; 3 h
  DNA Fragmentation after PDTC Treatment: 145 ± 12 % Control
Mutant p53 HCT 15; 6 h
  DNA Fragmentation after PDTC Treatment: 259 ± 18 % Control
Mutant p53 HCT 15; 12 h
  DNA Fragmentation after PDTC Treatment: 673 ± 34 % Control
Mutant p53 HCT 15; 24 h
  DNA Fragmentation after PDTC Treatment: 979 ± 34 % Control
DKO-3; 3 h
  DNA Fragmentation after PDTC Treatment: 223 ± 11 % Control
DKO-3; 6 h
  DNA Fragmentation after PDTC Treatment: 478 ± 16 % Control
DKO-3; 12 h
  DNA Fragmentation after PDTC Treatment: 896 ± 23 % Control
DKO-3; 24 h
  DNA Fragmentation after PDTC Treatment: 1116 ± 54 % Control
[2]
  IC50: 650 µM
AsPo1
  IC50: 70 µM
Saos-2
  IC50: 10 µM
N-87
  IC50: 40 µM
[3]
  IC50: 450 µM
MCF-7
  IC50: 13 µM
PANC-1
  IC50: 75 µM
MDA MB-468
  IC50: 20 µM
MCF-10HRas
  IC50: 5 µM
Hs746T
  IC50: 35 µM
MDA-MB231
  IC50: 10 µM
MCF-10WT
  IC50: 5 µM
BxPc3
  IC50: 100 µM
Primary colonocytes [4]
  IC50: 500 µM
Keratinocytes
  IC50: 600 µM
HCT 15-derived tumors
  tumor size: 1325+210 mm^3
[5]
  toxicity of 5-FU: substantially reduces the toxicity of 5-FU
DLD-1; 3 h
  DNA Fragmentation after PDTC Treatment: 213 ± 17 % Control
DLD-1; 6 h
  DNA Fragmentation after PDTC Treatment: 296 ± 21 % Control
DLD-1; 12 h
  DNA Fragmentation after PDTC Treatment: 712 ± 34 % Control
DLD-1; 24 h
  DNA Fragmentation after PDTC Treatment: 876 ± 46 % Control
HCT 15 cells
  IC50: ~70 µM
HCT 116 cells
  IC50: ~70 µM
